Laboratory results reported in patent US10189843B2, “Fused pyrazole derivative having autotaxin inhibitory activity” (The University of Tokyo, priority 2014, dated 2019).

Biological target: T1, Human autotaxin enzyme (Homo sapiens, UniProt Q13822)
T1 construct: purchased R&D System
Test: Evaluation of autotaxin inhibitor, Method C (18:0 Lyso PC substrate, choline assay, Resorufin fluorescence)
Assay type: biochemical
Details: Method C (Test Example 3), read-out: Inhibitory activity (enzyme inhibitory activity, IC50)
Description: Test Example 3 (Method C) Evaluation of Autotaxin Inhibitor
Solution B containing 100 mM Tris-HCl buffer (pH7.5), 150 mM NaCl, 5 mM MgCl2, and 0.05% Triton X-100 was prepared. Human autotaxin enzyme (purchased from R&D System) was diluted with Solution B, and 2.5 μl of which was added to a solution of test compound in DMSO. Furthermore, 2.5 μl of 200 μM 18:0 Lyso PC (purchased from Avanti Polar Lipids) in Solution B was added and allowed to react at room temperature for 2 hours. After completion of the reaction, 15 μl of the coline assay reagent (100 mM Tris-HCl buffer (pH7.5), 5 mM MgCl2, 77 μg/ml coline oxidase, 10 μg/ml peroxydase, 25 μM 10-acetyl-3,7-dihydroxyphenoxazine, and excess autotaxin inhibitor) was added and allowed to react at room temperature for 20 minutes. The fluorescent dye Resorufin, which was produced by the reaction, was detected. The fluorescence was detected using ViewLux (PerkinElmer, Inc.) with a excitation wavelength of 531 nm and a fluorescence wavelength of 598 nm.
The percent inhibition of the test compound was calculated by assuming the sample with no test compound as 0% inhibition and the sample with no enzyme as 100% inhibition, and the percent inhibitions at different concentrations of the test compound were plotted to obtain a concentration-dependent curve.

For `CCCCC1CN(CC(=O)OCC)C(=O)c2cc(-c3ccc(Cl)cc3)nn21` (stereo not drawn) [Compound I-0294], the IC50 was 10 to 100 nM.

In the case of `CCCCCC1CN(CC(=O)N2CCC(c3ccccc3)CC2)C(=O)c2cc(-c3ccc(Cl)cc3)nn21` (stereo not drawn) [Compound I-0036], the IC50 is reported as 10 to 100 nM.

Compound `CCCCCC1CN(CC(=O)N(C)c2ccncc2)C(=O)c2cc(-c3ccc(Cl)cc3)nn21` (stereo not drawn) [Compound I-0085] has an IC50 of no less than 1000 nM.

`CCCCCC1CN(CC(=O)N2CCCC(CC(=O)O)C2)C(=O)c2cc(-c3ccc(Cl)cc3)nn21` (stereo not drawn) [Compound I-0053] was tested, and the IC50 was 10 to 100 nM.

Work on `CCCCCC1CN(CC(=O)N2CCCCC2)C(=O)c2cc(-c3ccc(Cl)cc3)nn21` (stereo not drawn) [Compound I-0083] yielded an IC50 of 100 to 1000 nM.

Work on `CCCCC1CN(C(C(C)=O)c2ccccc2)C(=O)c2cc(-c3ccc(Cl)cc3)nn21` (stereo not drawn) [Compound I-0262] yielded an IC50 of no less than 1000 nM.

`CCCCCC1CN(Cc2cc(C)cc(C(=O)OC)c2)C(=O)c2cc(-c3ccc(Cl)cc3)nn21` (stereo not drawn) [Compound I-0126] gave an IC50 of no less than 1000 nM.

For `CCOC(=O)CN1CC(CC(F)(F)F)n2nc(-c3ccc(Cl)cc3)cc2C1=O` (stereo not drawn) [Compound I-0023], the IC50 was no less than 1000 nM.

`CCCCCC1CN(c2ccc(C(=O)O)cc2)C(=O)c2cc(-c3ccc(Cl)cc3)nn21` (stereo not drawn) [Compound I-0179] showed an IC50 of 100 to 1000 nM.

For `N#Cc1ccc(CN2CC(CC(F)(F)C(F)(F)C(F)(F)F)n3nc(-c4ccc(Cl)cc4)cc3C2=O)cc1` (stereo not drawn) [Compound I-0186], the IC50 was no less than 1000 nM.

`C[C@H]1CN(CC(=O)NCCC(=O)O)C(=O)c2cc(-c3ccc(Cl)cc3)nn21` [Compound I-0156] showed an IC50 of no less than 1000 nM.

`CCCCC1CN(Cc2ccc(C#N)cc2)C(=O)c2cc(-c3ccc(Cl)cc3COC)nn21` (stereo not drawn) [Compound I-0284] gave an IC50 of no less than 1000 nM.

With `CCCCCC1CN(CC(=O)N(C)c2ccc(C(=O)O)cc2)C(=O)c2cc(-c3ccc(Cl)cc3)nn21` (stereo not drawn) [Compound I-0118] the IC50 was no less than 1000 nM.

For `CC(=O)Nc1cc(OC(F)(F)F)ccc1-c1cc2n(n1)[C@@H](C)CN(Cc1ccc(C#N)cc1)C2=O` [Compound I-0334], the IC50 was less than 10 nM.

`CCCOCC1CN(CC(=O)O)C(=O)c2cc(-c3ccc(Cl)cc3)nn21` (stereo not drawn) [Compound I-0253] gave an IC50 of no less than 1000 nM.

In the case of `O=C(O)c1cccc(CN2CC(CO)n3nc(-c4ccc(Cl)cc4)cc3C2=O)c1` (stereo not drawn) [Compound I-0174], the IC50 is reported as no less than 1000 nM.

For `CCCCCC1CN(CC(=O)N2CCC[C@@H]2C)C(=O)c2cc(-c3ccc(Cl)cc3)nn21` (stereo partly drawn) [Compound I-0075], the IC50 was 10 to 100 nM.

Compound `CCCCC1CN(CC(=O)N2CCC(OCCO)CC2)C(=O)c2cc(-c3ccc(Cl)cc3)nn21` (stereo not drawn) [Compound I-0243] has an IC50 of 100 to 1000 nM.

For `CCCCCC1CN(CC(=O)NC(CCC)C(=O)O)C(=O)c2cc(-c3ccc(Cl)cc3)nn21` (stereo not drawn) [Compound I-0062], the IC50 was less than 10 nM.

With `CCCCC1CN(Cc2ccc(C#N)cc2)C(=O)c2cc(N3CCC(F)(F)CC3)nn21` (stereo not drawn) [Compound I-0302] the IC50 was 100 to 1000 nM.

In the case of `CCCCCC1CN(CC(=O)NCC)C(=O)c2cc(-c3ccc(Cl)cc3)nn21` (stereo not drawn) [Compound I-0108], the IC50 is reported as 100 to 1000 nM.

`CCCCCC1CN(Cc2cc(C(C)=O)ccc2OC)C(=O)c2cc(-c3ccc(Cl)cc3)nn21` (stereo not drawn) [Compound I-0136] gave an IC50 of no less than 1000 nM.

`CCCCCC1CN(CC(=O)Nc2ccncc2)C(=O)c2cc(-c3ccc(Cl)cc3)nn21` (stereo not drawn) [Compound I-0084] showed an IC50 of no less than 1000 nM.

Work on `CCCC1CN(Cc2ccc(C#N)cc2)C(=O)c2cc(-c3ccc(Cl)cc3)nn21` (stereo not drawn) [Compound I-0181] yielded an IC50 of 100 to 1000 nM.

`CCCCC1CN(CC(=O)N[C@@H]2CCC[C@H]2O)C(=O)c2cc(-c3ccc(Cl)cc3)nn21` (stereo partly drawn) [Compound I-0245] was tested, and the IC50 was 100 to 1000 nM.

`CCOCC1CN(Cc2cccc(C(=O)O)c2)C(=O)c2cc(-c3ccc(Cl)cc3)nn21` (stereo not drawn) [Compound I-0175] was tested, and the IC50 was 10 to 100 nM.

Compound `CCCCCC1CN(CC(=O)N2CCC(C)CC2)C(=O)c2cc(-c3ccc(Cl)cc3)nn21` (stereo not drawn) [Compound I-0093] has an IC50 of 100 to 1000 nM.

`CC(C)OCC1CNC(=O)c2cc(-c3ccc(Cl)cc3)nn21` (stereo not drawn) [Compound I-0199] showed an IC50 of no less than 1000 nM.

Compound `CC(=O)Nc1cc(C#N)ccc1-c1cc2n(n1)[C@@H](C)CN(CC(=O)N(C)CCC#N)C2=O` [Compound I-0341] has an IC50 of 10 to 100 nM.

With `C[C@H]1CN(CC(=O)NCCCC(=O)O)C(=O)c2cc(-c3ccc(Cl)cc3)nn21` [Compound I-0157] the IC50 was no less than 1000 nM.
